ChEMBL document CHEMBL1201862, “PubChem BioAssay data set” (2004)
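Method: 48-hour compound exposure of cells in 96-well plates, five concentrations, linear interpolation of endpoints. GI50: concentration for 50% inhibition of growth.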 Active and inactive are the calls of the source. Cut-off read from the data, not from the text of the source: active = GI50 up to about 1.1 µM and inactive = higher.

Legend:
Experiment in all cases: DTP human tumour cell line panel, 48 h
[1] = test system: BT-549
[2] = test system: Hs-578T
[3] = test system: 786-0
[4] = test system: SF-295
[5] = test system: SK-MEL-2
[6] = test system: UACC-257
[7] = test system: OVCAR-5
[8] = test system: NCI-H460
[9] = test system: SNB-75
[10] = test system: DU-145
[11] = test system: HCT-15
[12] = test system: M14
[13] = test system: MCF7
[14] = test system: NCI/ADR-RES
[15] = test system: ACHN
[16] = test system: SW-620
[17] = test system: SK-OV-3
[18] = test system: MDA-MB-435
[19] = test system: TK-10
[20] = test system: UACC-62

Row | SMILES | GI50 [1] | GI50 [2] | GI50 [3] | GI50 [4] | GI50 [5] | GI50 [6] | GI50 [7] | GI50 [8] | GI50 [9] | GI50 [10] | GI50 [11] [µM] | GI50 [12] | GI50 [13] | GI50 [14] | GI50 [15] | GI50 [16] | GI50 [17] | GI50 [18] | GI50 [19] | GI50 [20]
1 | N#CC(NCCO)=C1C(=O)c2ccccc2C1=O | > 100 µM (inactive) | > 100 µM (inactive) | > 100 µM (inactive) | > 100 µM (inactive) | > 100 µM (inactive) | > 100 µM (inactive) | > 100 µM (inactive) | > 100 µM (inactive) | > 100 µM (inactive) | > 100 µM (inactive) | > 100 | > 100 µM (inactive) | > 100 µM (inactive) | > 100 µM (inactive) | > 100 µM (inactive) | > 100 µM (inactive) | > 100 µM (inactive) | > 100 µM (inactive) | > 100 µM (inactive) | > 100 µM (inactive)
2 | C=C(CCC(C)C1CCC2C3=C(C(=O)CC21C)C1(C)CCC(=O)[C@@H](C)C1CC3=O)C(C)C(=O)O (stereo not given in full) | 47.3 µM (inactive) | > 100 µM (inactive) | 18.3 µM (inactive) | 53.2 µM (inactive) | > 100 µM (inactive) | 46.9 µM (inactive) | > 100 µM (inactive) | 34 µM (inactive) | 42.4 µM (inactive) | > 100 µM (inactive) | 77.8 | > 100 µM (inactive) | > 100 µM (inactive) | > 100 µM (inactive) | 29.9 µM (inactive) | 68.2 µM (inactive) | 0.51 µM (active) | 65.6 µM (inactive) | > 100 µM (inactive) | 49.5 µM (inactive)
3 | CCOC1(OCC)C2C=CC1C(COS(=O)(=O)c1ccc(C)cc1)C2COS(=O)(=O)c1ccc(C)cc1 (stereo not given) | 29.3 µM (inactive) | 37.3 µM (inactive) | 33.3 µM (inactive) | 96.6 µM (inactive) | 28.7 µM (inactive) | 25.4 µM (inactive) | 49.4 µM (inactive) | 35.5 µM (inactive) | 24.8 µM (inactive) | 39.8 µM (inactive) | 26 | 26.8 µM (inactive) | 30.2 µM (inactive) | 32 µM (inactive) | 33.7 µM (inactive) | 36.3 µM (inactive) | 33.3 µM (inactive) | 29 µM (inactive) | 41.2 µM (inactive) | 20.4 µM (inactive)
4 | CNC1C(O)C(NC)C2OC3(O)C(=O)CC(C)OC3OC2C1O (stereo not given) | > 100 µM (inactive) | > 100 µM (inactive) | > 100 µM (inactive) | > 100 µM (inactive) | > 100 µM (inactive) | > 100 µM (inactive) | > 100 µM (inactive) | > 100 µM (inactive) | > 100 µM (inactive) | > 100 µM (inactive) | > 100 | > 100 µM (inactive) | > 100 µM (inactive) | > 100 µM (inactive) | > 100 µM (inactive) | > 100 µM (inactive) | > 100 µM (inactive) | > 100 µM (inactive) | > 100 µM (inactive) | > 100 µM (inactive)
5 | CC(=O)C1=C(C)N(c2ccccc2)C2(O)C3=C(C(=O)c4ccccc4C3=O)C(O)=CC12Cl (stereo not given) | 8.11 µM (inactive) | 4.01 µM (inactive) | 4.63 µM (inactive) | 11.1 µM (inactive) | 5.07 µM (inactive) | 4.71 µM (inactive) | 20 µM (inactive) | 5.26 µM (inactive) | 4.28 µM (inactive) | 11.2 µM (inactive) | 3.73 | 7.03 µM (inactive) | 3.61 µM (inactive) | 3.73 µM (inactive) | 5.11 µM (inactive) | 3.89 µM (inactive) | 49.7 µM (inactive) | 2.32 µM (inactive) | 14.4 µM (inactive) | 13 µM (inactive)
6 | CCN(CC)CCn1ccc(=O)c2cc3c(=O)ccn(CCN(CC)CC)c3c(C)c21 | 14.5 µM (inactive) | 4.03 µM (inactive) | 1.92 µM (inactive) | 4.47 µM (inactive) | 11.6 µM (inactive) | 16.7 µM (inactive) | 14.1 µM (inactive) | 1.31 µM (inactive) | 9.91 µM (inactive) | 5.19 µM (inactive) | 3.38 | 9.38 µM (inactive) | 20.8 µM (inactive) | 1.41 µM (inactive) | 4.02 µM (inactive) | 1.53 µM (inactive) | 4.13 µM (inactive) | 4.65 µM (inactive) | 7.43 µM (inactive) | 15.4 µM (inactive)
7 | OC1(c2ccccc2)CCN(Cc2c[nH]c3ccccc23)CC1 | > 100 µM (inactive) | > 100 µM (inactive) | 44 µM (inactive) | 92.7 µM (inactive) | 18 µM (inactive) | 18.3 µM (inactive) | > 100 µM (inactive) | 49.1 µM (inactive) | > 100 µM (inactive) | > 100 µM (inactive) | 49.5 | 17.5 µM (inactive) | 50.5 µM (inactive) | > 100 µM (inactive) | > 100 µM (inactive) | > 100 µM (inactive) | > 100 µM (inactive) | 37.2 µM (inactive) | > 100 µM (inactive) | 47.8 µM (inactive)
